Data as given in PubChem BioAssay AID2060618 (Molecular Pharmacology Branch, DTP, NCI, 2025).

Tested on: 454973-116-R2-J3-PDC spheroids, percent test/control viability
Experiment: Anticancer human tumor 454973-116-R2-J3-PDC patient-derived pancreatic carcinoma cell line growth inhibition [CLK]
Conditions: spheroids with HUVEC and MSC; for IC50: curve of first compound; for viability, T/C: stronger effect = lower value
Outline: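 Patient-derived tumor cells grown as complex spheroids with HUVEC endothelial cells and mesenchymal stem cells, treated with drug combinations. Concentrations descend in half-log steps from near clinical Cmax, or from 10 microM if Cmax unknown.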
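Also: spheroids exposed to compounds for 7 days before readout.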

## CC1(C)CCC(CN2CCN(c3ccc(C(=O)NS(=O)(=O)c4ccc(NCC5CCOCC5)c([N+](=O)[O-])c4)c(Oc4cnc5[nH]ccc5c4)c3)CC2)=C(c2ccc(Cl)cc2)C1 + CNC(=O)c1ccc(Nc2nc(OC3CCCC3)c3c(-c4ccc5nc(C)oc5c4)c[nH]c3n2)c(OC)c1
Second compound 0.0316 µM
  IC50: 6830 nM
Second compound 0.1 µM
  IC50: 6950 nM
Second compound 0.316 µM
  IC50: < 31.6 nM
Second compound 1 µM
  IC50: < 31.6 nM
Second compound 3.16 µM
  IC50: < 31.6 nM
Second compound 10 µM
  IC50: < 31.6 nM
Second compound 0.0316 µM, first compound 0.0316 µM
  viability, T/C: 95.9%
Second compound 0.0316 µM, first compound 0.1 µM
  viability, T/C: 94.7%
Second compound 0.0316 µM, first compound 0.316 µM
  viability, T/C: 103%
Second compound 0.0316 µM, first compound 1 µM
  viability, T/C: 102%
Second compound 0.0316 µM, first compound 3.16 µM
  viability, T/C: 112%
Second compound 0.0316 µM, first compound 10 µM
  viability, T/C: 24.5%
Second compound 0.1 µM, first compound 0.0316 µM
  viability, T/C: 96.3%
Second compound 0.1 µM, first compound 0.1 µM
  viability, T/C: 98.8%
Second compound 0.1 µM, first compound 0.316 µM
  viability, T/C: 93.9%
Second compound 0.1 µM, first compound 1 µM
  viability, T/C: 94%
Second compound 0.1 µM, first compound 3.16 µM
  viability, T/C: 102%
Second compound 0.1 µM, first compound 10 µM
  viability, T/C: 28.1%
Second compound 0.316 µM, first compound 0.0316 µM
  viability, T/C: 37.5%
Second compound 0.316 µM, first compound 0.1 µM
  viability, T/C: 38.5%
Second compound 0.316 µM, first compound 0.316 µM
  viability, T/C: 37.6%
Second compound 0.316 µM, first compound 1 µM
  viability, T/C: 40.3%
Second compound 0.316 µM, first compound 3.16 µM
  viability, T/C: 32.5%
Second compound 0.316 µM, first compound 10 µM
  viability, T/C: 21.1%
Second compound 1 µM, first compound 0.0316 µM
  viability, T/C: 27.2%
Second compound 1 µM, first compound 0.1 µM
  viability, T/C: 26.2%
Second compound 1 µM, first compound 0.316 µM
  viability, T/C: 28.3%
Second compound 1 µM, first compound 1 µM
  viability, T/C: 28.4%
Second compound 1 µM, first compound 3.16 µM
  viability, T/C: 28.3%
Second compound 1 µM, first compound 10 µM
  viability, T/C: 23.4%
Second compound 3.16 µM, first compound 0.0316 µM
  viability, T/C: 29.2%
Second compound 3.16 µM, first compound 0.1 µM
  viability, T/C: 25.2%
Second compound 3.16 µM, first compound 0.316 µM
  viability, T/C: 26.9%
Second compound 3.16 µM, first compound 1 µM
  viability, T/C: 23.9%
Second compound 3.16 µM, first compound 3.16 µM
  viability, T/C: 27.6%
Second compound 3.16 µM, first compound 10 µM
  viability, T/C: 22.3%
Second compound 10 µM, first compound 0.0316 µM
  viability, T/C: 26.6%
Second compound 10 µM, first compound 0.1 µM
  viability, T/C: 26.6%
Second compound 10 µM, first compound 0.316 µM
  viability, T/C: 24.4%
Second compound 10 µM, first compound 1 µM
  viability, T/C: 21.8%
Second compound 10 µM, first compound 3.16 µM
  viability, T/C: 26.1%
Second compound 10 µM, first compound 10 µM
  viability, T/C: 21.6%

## NC(=O)C(=Cn1cnc(-c2cc(C(F)(F)F)cc(C(F)(F)F)c2)n1)c1cncnc1 + CNC(=O)c1ccc(Nc2nc(OC3CCCC3)c3c(-c4ccc5nc(C)oc5c4)c[nH]c3n2)c(OC)c1
Second compound 0.0316 µM
  IC50: 330 nM
Second compound 0.1 µM
  IC50: 411 nM
Second compound 0.316 µM
  IC50: 61.9 nM
Second compound 1 µM
  IC50: < 9.49 nM
Second compound 3.16 µM
  IC50: < 9.49 nM
Second compound 10 µM
  IC50: < 9.49 nM
Second compound 0.0316 µM, first compound 0.00949 µM
  viability, T/C: 115%
Second compound 0.0316 µM, first compound 0.03 µM
  viability, T/C: 92.4%
Second compound 0.0316 µM, first compound 0.0949 µM
  viability, T/C: 66.3%
Second compound 0.0316 µM, first compound 0.3 µM
  viability, T/C: 55%
Second compound 0.0316 µM, first compound 0.949 µM
  viability, T/C: 35.7%
Second compound 0.0316 µM, first compound 3 µM
  viability, T/C: 8.15%
Second compound 0.1 µM, first compound 0.00949 µM
  viability, T/C: 105%
Second compound 0.1 µM, first compound 0.03 µM
  viability, T/C: 96.4%
Second compound 0.1 µM, first compound 0.0949 µM
  viability, T/C: 71%
Second compound 0.1 µM, first compound 0.3 µM
  viability, T/C: 55.3%
Second compound 0.1 µM, first compound 0.949 µM
  viability, T/C: 37.2%
Second compound 0.1 µM, first compound 3 µM
  viability, T/C: 11.1%
Second compound 0.316 µM, first compound 0.00949 µM
  viability, T/C: 54.1%
Second compound 0.316 µM, first compound 0.03 µM
  viability, T/C: 55.3%
Second compound 0.316 µM, first compound 0.0949 µM
  viability, T/C: 47.9%
Second compound 0.316 µM, first compound 0.3 µM
  viability, T/C: 38.1%
Second compound 0.316 µM, first compound 0.949 µM
  viability, T/C: 28.3%
Second compound 0.316 µM, first compound 3 µM
  viability, T/C: 4.69%
Second compound 1 µM, first compound 0.00949 µM
  viability, T/C: 35.7%
Second compound 1 µM, first compound 0.03 µM
  viability, T/C: 31.3%
Second compound 1 µM, first compound 0.0949 µM
  viability, T/C: 28.1%
Second compound 1 µM, first compound 0.3 µM
  viability, T/C: 18.8%
Second compound 1 µM, first compound 0.949 µM
  viability, T/C: 12.8%
Second compound 1 µM, first compound 3 µM
  viability, T/C: 1%
Second compound 3.16 µM, first compound 0.00949 µM
  viability, T/C: 31.4%
Second compound 3.16 µM, first compound 0.03 µM
  viability, T/C: 30.6%
Second compound 3.16 µM, first compound 0.0949 µM
  viability, T/C: 26.1%
Second compound 3.16 µM, first compound 0.3 µM
  viability, T/C: 19.3%
Second compound 3.16 µM, first compound 0.949 µM
  viability, T/C: 5.51%
Second compound 3.16 µM, first compound 3 µM
  viability, T/C: 0.93%
Second compound 10 µM, first compound 0.00949 µM
  viability, T/C: 32.6%
Second compound 10 µM, first compound 0.03 µM
  viability, T/C: 25.8%
Second compound 10 µM, first compound 0.0949 µM
  viability, T/C: 22.5%
Second compound 10 µM, first compound 0.3 µM
  viability, T/C: 19.9%
Second compound 10 µM, first compound 0.949 µM
  viability, T/C: 4.71%
Second compound 10 µM, first compound 3 µM
  viability, T/C: 0.78%
